The numbers were not newly measured in US12109217B2, “Bioactive agents included in functionalized starch having a single helix V-structure” (B-ORGANIC FILMS CORP., priority 2014, dated 2024), which cites them from elsewhere.

The conditions of data set [1]: in vivo.

Structures are written as SMILES. Like-named read-outs stand apart in the source and are kept apart here.

On to `CC(=O)O[C@H]1C(=O)[C@@]2(C)[C@H]([C@H](OC(=O)c3ccccc3)[C@]3(O)C[C@H](OC(=O)[C@H](O)[C@@H](NC(=O)c4ccccc4)c4ccccc4)C(C)=C1C3(C)C)[C@]1(OC(C)=O)CO[C@@H]1C[C@@H]2O` [Paclitaxel], for which the solubility entry (water / aqueous medium (and oil where stated)) is “poorly soluble in aqueous medium”.

Take `COC(=O)[C@H](c1ccccc1Cl)N1CCc2sccc2C1` [Clopidogrel bisulfate]: for the setting “neutral pH”, the solubility in water entry is listed as “insoluble in water”. In addition, where the note is “pH 1-2 (similar to gastric pH)”, the solubility entry is on record as “freely soluble”.

Regarding `C[C@@H]1CC[C@H]2[C@@H](C)C(=O)O[C@@H]3O[C@@]4(C)CC[C@@H]1[C@]32OO4` [Artemisinin], the oral bioavailability entry in data set [1] is listed as “about 30%”.
